Test results taken from patent US5112809A, “CRF analogs” (The Salk Institute for Biological Studies, priority 1990, dated 1992).

System: cultured rat pituitary cells
Assay: secretion of ACTH and β-endorphin by cultured rat pituitary cells in vitro
Format: cell-based
Details: read-out: concentration at which half-maximal responses are observed (stimulation of secretion of ACTH and β-endorphin)
Protocol: The synthetic peptides from Example I and synthetic oCRF are examined for their effects on the secretion of ACTH and β-endorphin in vitro and also in vivo. The potency of synthetic oCRF to stimulate the secretion of ACTH and β-endorphin by cultured rat pituitary cells is measured using the procedure as generally set forth in Endocrinology, 91, 562 (1972). Half-maximal responses are observed at concentrations of the two peptides which are less than the synthetic oCRF concentration of about 250 picomolar which is needed to achieve such a response. In vivo testing using the general procedure set forth in C.

- EC50: ~0.25 nM
Substance: oCRF: ovine corticotropin releasing factor, 41-residue peptide, formula disclosed in U.S. Pat. No. 4,415,558
